Measured values as given in PMC12298351, “Novel 3,19-(N-Phenyl-3-(4-fluorophenyl)-pyrazole) Acetal of Andrographolide Promotes Cell Cycle Arrest and Apoptosis in MDA-MB-231 Breast Cancer Cells” (Pharmaceuticals, 2025).

Legend:
OVCAR-5 = conditions: OVCAR-5, Ovarian; for CC50: read-out: 50% lethal concentration (LC50)
UO-31 = conditions: UO-31, Renal; for CC50: read-out: 50% lethal concentration (LC50)
SNB-75 = conditions: SNB-75, CNS; for CC50: read-out: 50% lethal concentration (LC50)
HCT-15 = conditions: HCT-15, Colon; for CC50: read-out: 50% lethal concentration (LC50)
SNB-19 = format: cell-based; conditions: SNB-19, CNS; for CC50: read-out: 50% lethal concentration (LC50)
TK-10 = format: cell-based; conditions: TK-10, Renal; for CC50: read-out: 50% lethal concentration (LC50)
NCI-H23 = conditions: for Total growth inhibition (TGI) / CC50: NCI-H23, Non-Small Cell Lung; for GI50: NCI-H23, Non-Small-Cell Lung; for CC50: read-out: 50% lethal concentration (LC50)
ACHN = conditions: for GI50 / Total growth inhibition (TGI): Renal; for CC50: read-out: 50% lethal concentration (LC50), Renal
PC-3 = conditions: PC-3, Prostate; for CC50: read-out: 50% lethal concentration (LC50)
RPMI-8226 = conditions: RPMI-8226, Leukemia; for CC50: read-out: 50% lethal concentration (LC50)
HL-60(TB) = conditions: for GI50 / Total growth inhibition (TGI): Leukemia; for CC50: read-out: 50% lethal concentration (LC50), Leukemia
UACC-62 = conditions: UACC-62, Melanoma; for CC50: read-out: 50% lethal concentration (LC50)
COLO 205 = conditions: COLO 205, Colon
MOLT-4 = conditions: MOLT-4, Leukemia; for CC50: read-out: 50% lethal concentration (LC50)
SK-OV-3 = conditions: SK-OV-3, Ovarian; for CC50: read-out: 50% lethal concentration (LC50)
HCT-116 = format: cell-based; conditions: HCT-116, Colon
UACC-257 = conditions: UACC-257, Melanoma
IGROV1 = conditions: IGROV1, Ovarian; for CC50: read-out: 50% lethal concentration (LC50)
NCI-H522 = conditions: for Total growth inhibition (TGI) / CC50: NCI-H522, Non-Small Cell Lung; for GI50: NCI-H522, Non-Small-Cell Lung; for CC50: read-out: 50% lethal concentration (LC50)
786-0 = conditions: 786-0, Renal; for CC50: read-out: 50% lethal concentration (LC50)
HCC-2998 = conditions: HCC-2998, Colon
DU-145 = conditions: DU-145, Prostate; for CC50: read-out: 50% lethal concentration (LC50)
SF-295 = conditions: SF-295, CNS; for CC50: read-out: 50% lethal concentration (LC50)
SF-268 = conditions: SF-268, CNS; for CC50: read-out: 50% lethal concentration (LC50)
SK-MEL-5 = conditions: SK-MEL-5, Melanoma; for CC50: read-out: 50% lethal concentration (LC50)
MDA-MB-435 = conditions: MDA-MB-435, Melanoma; for CC50: read-out: 50% lethal concentration (LC50)
K-562 = conditions: K-562, Leukemia; for CC50: read-out: 50% lethal concentration (LC50)
BT-549 = format: cell-based; conditions: BT-549, Breast
HOP-92 = conditions: for Total growth inhibition (TGI) / CC50: HOP-92, Non-Small Cell Lung; for GI50: HOP-92, Non-Small-Cell Lung; for CC50: read-out: 50% lethal concentration (LC50)
CCRF-CEM = conditions: for GI50 / Total growth inhibition (TGI): Leukemia; for CC50: read-out: 50% lethal concentration (LC50), Leukemia
OVCAR-4 = format: cell-based; conditions: OVCAR-4, Ovarian; for CC50: read-out: 50% lethal concentration (LC50)
T-47D = conditions: for GI50 / Total growth inhibition (TGI): Breast; for CC50: read-out: 50% lethal concentration (LC50), Breast

C=C1CCC2C3(C)COC(c4cn(-c5ccccc5)nc4-c4ccc(OC)cc4)OC3CCC2(C)C1CC=C1C(=O)OCC1O (stereo not shown) [1j]
GI50 (OVCAR-5): 1.86 µM
Total growth inhibition (TGI) (OVCAR-5): 4.21 µM
CC50 (OVCAR-5): 9.52 µM
GI50 (UO-31): 1.22 µM
Total growth inhibition (TGI) (UO-31): 2.54 µM
CC50 (UO-31): 5.25 µM
GI50 (SNB-75): 1.15 µM
Total growth inhibition (TGI) (SNB-75): 5.09 µM
CC50 (SNB-75): 24.4 µM
GI50 (HCT-15): 1.58 µM
Total growth inhibition (TGI) (HCT-15): 3.37 µM
CC50 (HCT-15): 7.2 µM
GI50 (SNB-19): 2.46 µM
Total growth inhibition (TGI) (SNB-19): 7.42 µM
CC50 (SNB-19): 34.6 µM
GI50 (TK-10): 1.95 µM
Total growth inhibition (TGI) (TK-10): 4.13 µM
CC50 (TK-10): 8.77 µM
Total growth inhibition (TGI) (NCI-H23): 3.74 µM
GI50 (NCI-H23): 1.71 µM
CC50 (NCI-H23): 8.2 µM
GI50 (ACHN): 1.52 µM
Total growth inhibition (TGI) (ACHN): 2.87 µM
CC50 (ACHN): 5.41 µM
GI50 (PC-3): 2.18 µM
CC50 (PC-3): > 100 µM
GI50 (RPMI-8226): 0.92 µM
Total growth inhibition (TGI) (RPMI-8226): > 100 µM
CC50 (RPMI-8226): > 100 µM
GI50 (HL-60(TB)): 1.08 µM
Total growth inhibition (TGI) (HL-60(TB)): 3.96 µM
CC50 (HL-60(TB)): > 100 µM
GI50 (UACC-62): 1.91 µM
Total growth inhibition (TGI) (UACC-62): 4.26 µM
CC50 (UACC-62): 9.48 µM
GI50 (COLO 205): 1.95 µM
Total growth inhibition (TGI) (COLO 205): 4.24 µM
GI50 (MOLT-4): 1.71 µM
Total growth inhibition (TGI) (MOLT-4): 7.57 µM
CC50 (MOLT-4): > 100 µM
GI50 (SK-OV-3): 3.44 µM
Total growth inhibition (TGI) (SK-OV-3): 23.9 µM
CC50 (SK-OV-3): > 100 µM
GI50 (HCT-116): 1.4 µM
Total growth inhibition (TGI) (HCT-116): 3.11 µM
GI50 (UACC-257): 1.64 µM
Total growth inhibition (TGI) (UACC-257): 3.28 µM
GI50 (IGROV1): 1.37 µM
Total growth inhibition (TGI) (IGROV1): 2.99 µM
CC50 (IGROV1): 6.52 µM
Total growth inhibition (TGI) (NCI-H522): 3.24 µM
GI50 (NCI-H522): 1.73 µM
CC50 (NCI-H522): 6.06 µM
GI50 (786-0): 2.3 µM
Total growth inhibition (TGI) (786-0): 5.59 µM
CC50 (786-0): > 100 µM
GI50 (HCC-2998): 1.7 µM
Total growth inhibition (TGI) (HCC-2998): 3.19 µM
GI50 (DU-145): 2.04 µM
Total growth inhibition (TGI) (DU-145): 4.94 µM
CC50 (DU-145): 16.4 µM
GI50 (SF-295): 1.43 µM
Total growth inhibition (TGI) (SF-295): 2.78 µM
CC50 (SF-295): 5.39 µM
GI50 (SF-268): 1.67 µM
Total growth inhibition (TGI) (SF-268): 3.6 µM
CC50 (SF-268): 7.77 µM
GI50 (SK-MEL-5): 1.54 µM
Total growth inhibition (TGI) (SK-MEL-5): 2.89 µM
CC50 (SK-MEL-5): 5.41 µM
GI50 (MDA-MB-435): 1.54 µM
Total growth inhibition (TGI) (MDA-MB-435): 3.17 µM
CC50 (MDA-MB-435): 6.51 µM
GI50 (K-562): 1.9 µM
CC50 (K-562): > 100 µM
GI50 (BT-549): 1.65 µM
Total growth inhibition (TGI) (BT-549): 3.23 µM
Total growth inhibition (TGI) (HOP-92): 3.02 µM
GI50 (HOP-92): 1.47 µM
CC50 (HOP-92): 6.2 µM
GI50 (CCRF-CEM): 0.64 µM
Total growth inhibition (TGI) (CCRF-CEM): > 100 µM
CC50 (CCRF-CEM): > 100 µM
GI50 (OVCAR-4): 1.72 µM
Total growth inhibition (TGI) (OVCAR-4): 4.23 µM
CC50 (OVCAR-4): > 100 µM
GI50 (T-47D): 1.8 µM
Total growth inhibition (TGI) (T-47D): 5.02 µM
CC50 (T-47D): > 100 µM

C=C1CCC2C3(C)COC(c4cn(-c5ccccc5)nc4-c4cccc(Cl)c4)OC3CCC2(C)C1CC=C1C(=O)OCC1O (stereo not shown) [1d]
GI50 (OVCAR-5): 1.78 µM
Total growth inhibition (TGI) (OVCAR-5): 4.21 µM
CC50 (OVCAR-5): 7.73 µM
GI50 (UO-31): 1.3 µM
Total growth inhibition (TGI) (UO-31): 2.71 µM
CC50 (UO-31): 5.63 µM
GI50 (SNB-75): 1.12 µM
Total growth inhibition (TGI) (SNB-75): 3.14 µM
CC50 (SNB-75): 8.84 µM
GI50 (HCT-15): 1.58 µM
Total growth inhibition (TGI) (HCT-15): 3.47 µM
CC50 (HCT-15): 7.64 µM
GI50 (SNB-19): 2.24 µM
Total growth inhibition (TGI) (SNB-19): 6.04 µM
CC50 (SNB-19): 54.8 µM
GI50 (TK-10): 2.14 µM
Total growth inhibition (TGI) (TK-10): 4.56 µM
CC50 (TK-10): 9.71 µM
Total growth inhibition (TGI) (NCI-H23): 3.82 µM
GI50 (NCI-H23): 1.75 µM
CC50 (NCI-H23): 8.31 µM
GI50 (ACHN): 1.64 µM
Total growth inhibition (TGI) (ACHN): 3.01 µM
CC50 (ACHN): 5.52 µM
GI50 (PC-3): 2.07 µM
CC50 (PC-3): > 100 µM
GI50 (RPMI-8226): 1.38 µM
Total growth inhibition (TGI) (RPMI-8226): > 100 µM
CC50 (RPMI-8226): > 100 µM
GI50 (HL-60(TB)): 1.38 µM
Total growth inhibition (TGI) (HL-60(TB)): 4.97 µM
CC50 (HL-60(TB)): > 100 µM
GI50 (UACC-62): 1.71 µM
Total growth inhibition (TGI) (UACC-62): 3.42 µM
CC50 (UACC-62): 6.83 µM
GI50 (COLO 205): 1.98 µM
Total growth inhibition (TGI) (COLO 205): 4.24 µM
GI50 (MOLT-4): 1.14 µM
Total growth inhibition (TGI) (MOLT-4): 3.82 µM
CC50 (MOLT-4): > 100 µM
GI50 (SK-OV-3): 5.86 µM
Total growth inhibition (TGI) (SK-OV-3): 33.4 µM
CC50 (SK-OV-3): > 100 µM
GI50 (HCT-116): 1.04 µM
Total growth inhibition (TGI) (HCT-116): 3.48 µM
CC50 (HCT-116; read-out: 50% lethal concentration (LC50)): 45.2 µM
GI50 (UACC-257): 1.77 µM
Total growth inhibition (TGI) (UACC-257): 3.57 µM
GI50 (IGROV1): 1.39 µM
Total growth inhibition (TGI) (IGROV1): 3.22 µM
CC50 (IGROV1): 7.5 µM
Total growth inhibition (TGI) (NCI-H522): 2.95 µM
GI50 (NCI-H522): 1.54 µM
CC50 (NCI-H522): 5.65 µM
GI50 (786-0): 2.31 µM
Total growth inhibition (TGI) (786-0): 6.1 µM
CC50 (786-0): 83.4 µM
GI50 (HCC-2998): 1.81 µM
Total growth inhibition (TGI) (HCC-2998): 3.37 µM
GI50 (DU-145): 1.88 µM
Total growth inhibition (TGI) (DU-145): 3.98 µM
CC50 (DU-145): 8.43 µM
GI50 (SF-295): 1.42 µM
Total growth inhibition (TGI) (SF-295): 2.75 µM
CC50 (SF-295): 5.36 µM
GI50 (SF-268): 1.6 µM
Total growth inhibition (TGI) (SF-268): 3.34 µM
CC50 (SF-268): 6.94 µM
GI50 (SK-MEL-5): 1.63 µM
Total growth inhibition (TGI) (SK-MEL-5): 3 µM
CC50 (SK-MEL-5): 5.53 µM
GI50 (MDA-MB-435): 1.56 µM
Total growth inhibition (TGI) (MDA-MB-435): 3.19 µM
CC50 (MDA-MB-435): 6.49 µM
GI50 (K-562): 2.41 µM
CC50 (K-562): > 100 µM
GI50 (BT-549): 1.57 µM
Total growth inhibition (TGI) (BT-549): 3.63 µM
Total growth inhibition (TGI) (HOP-92): 3.11 µM
GI50 (HOP-92): 1.56 µM
CC50 (HOP-92): 6.2 µM
GI50 (CCRF-CEM): 1.32 µM
Total growth inhibition (TGI) (CCRF-CEM): 16.3 µM
CC50 (CCRF-CEM): > 100 µM
GI50 (OVCAR-4): 2.09 µM
CC50 (OVCAR-4): > 100 µM
GI50 (T-47D): 1.63 µM
Total growth inhibition (TGI) (T-47D): 4.76 µM
CC50 (T-47D): > 100 µM
